The values below come from patent publication US9718790B2, “Triazine derivative and pharmaceutical composition having an analgesic activity comprising the same” (SHIONOGI & CO., LTD., priority 2010, dated 2017).

pIC50: −log10 of the molar value.

The target in one experiment is human P2X3 receptor (Homo sapiens (Human), UniProt P56373). As to the kind of experiment: Evaluation of human P2X3 receptor inhibitory activity (Fluo-3 calcium fluorescence, FDSS 3000, ATP stimulation).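 Further: stimulus was 50 nM ATP with fluorescence followed for 3 min, and the response per well was peak post-ATP fluorescence divided by the reading at measurement start.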 It is filed as cell-based. The conditions noted are these: C6BU-1 cells stably expressing human P2X3 receptor.
Chain of human P2X3 receptor (P56373 whole entry): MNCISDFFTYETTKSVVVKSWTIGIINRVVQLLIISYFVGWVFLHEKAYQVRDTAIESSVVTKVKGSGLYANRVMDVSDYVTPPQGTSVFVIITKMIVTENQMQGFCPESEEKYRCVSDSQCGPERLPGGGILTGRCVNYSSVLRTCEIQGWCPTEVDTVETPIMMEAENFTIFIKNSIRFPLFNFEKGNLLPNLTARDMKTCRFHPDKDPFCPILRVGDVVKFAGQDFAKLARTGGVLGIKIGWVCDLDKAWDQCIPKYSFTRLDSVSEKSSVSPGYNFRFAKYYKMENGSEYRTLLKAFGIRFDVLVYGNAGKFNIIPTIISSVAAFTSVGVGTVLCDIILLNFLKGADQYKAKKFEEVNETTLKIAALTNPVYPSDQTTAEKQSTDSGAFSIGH
With `COC(=O)c1ccc(Oc2ccc(/N=c3\[nH]c(=O)n(C)c(=O)n3Cc3ccc(Cl)cc3)cc2)cc1` [Compound I-2058], the negative logarithm of the IC50 (pIC50) is 8.15.

Regarding `CCn1c(=O)[nH]/c(=N\c2ccc(Oc3ccc(C)c(C(=O)OC)c3)cc2)n(Cc2ccc(Cl)cc2)c1=O` [Compound I-2015], the pIC50 is 7.49.

On to `CC(C)Oc1ccc(/N=c2\[nH]c(=O)n(Cc3n[nH]c(=O)o3)c(=O)n2Cc2ccc(Cl)cc2)cc1F` [Compound I-0643], for which the pIC50 was 7.27.

`CNC(=O)C1(Cn2c(=O)[nH]/c(=N\c3ccc(OC(C)C)c(C)c3)n(Cc3ccc(Cl)cc3)c2=O)CC1` [Compound I-0703]: the pIC50 was 7.82.

Regarding `COC(=O)[C@@H](C)Cn1c(=O)[nH]/c(=N\c2ccc(Oc3ccnc(C)c3)cc2)n(Cc2ccc(C)cc2)c1=O` [Compound I-1274], the pIC50 is 8.22.

For the compound `C=Cc1cc(/N=c2\[nH]c(=O)n(CCC(=O)OCC)c(=O)n2Cc2ccc(C)cc2)ccc1OC(C)C` [Compound I-1190], the negative-log IC50 (pIC50) is 8.30.

In the case of `CCOc1ccc(/N=c2\[nH]c(=O)n(CCC(=O)O)c(=O)n2Cc2ccc(C)cc2)c(F)c1F` [Compound I-2052], the pIC50 was 7.17.

For `COC(=O)[C@@H](C)Cn1c(=O)[nH]/c(=N\c2cccc(C(F)(F)F)c2)n(Cc2ccc(Cl)cc2)c1=O` [Compound I-0622], the pIC50 was 7.52.

`CCn1c(=O)[nH]/c(=N\c2ccc(Oc3cccc(C(=O)OC)n3)cc2)n(Cc2ccc(Cl)cc2)c1=O` [Compound I-2067]: the pIC50 was 7.68.

As for `CCn1c(=O)[nH]/c(=N\c2ccc(Oc3cncc(C#N)c3)cc2)n(CC2CCC3(CC2)CC3)c1=O` [Compound I-2179], the pIC50 was 8.52.

Take `Cc1cc(Oc2ccc(/N=c3\[nH]c(=O)n(CC(=O)NCCO)c(=O)n3Cc3ccc(Cl)cc3)cc2)ccn1` [Compound I-1928]: the pIC50 is 8.30.

Turning to `O=C(O)CCn1c(=O)[nH]/c(=N\c2ccc(Oc3ccncc3)cc2)n(Cc2ccc(Cl)cc2)c1=O` [Compound I-1207], the pIC50 was 7.82.

For `COC(=O)[C@@H](C)Cn1c(=O)[nH]/c(=N\c2ccc(CC(C)C)c(OC)c2)n(Cc2ccc(C)cc2)c1=O` [Compound I-1249], the pIC50 is 7.68.

In the case of `CC(C)COc1ccc(/N=c2\[nH]c(=O)n(C[C@H](C)C(=O)O)c(=O)n2Cc2ccc(Cl)cc2)cc1` [Compound I-0750], the pIC50 was 7.66.

On to `CCOC(=O)CCCn1c(=O)[nH]/c(=N\c2ccc3nc(C)sc3c2)n(Cc2ccc(C)cc2)c1=O` [Compound I-2123], for which the pIC50 was 8.40.

Regarding `CCCOc1ccc(/N=c2\[nH]c(=O)n(C[C@H](C)C(=O)OC)c(=O)n2Cc2ccc(Cl)cc2)cc1C` [Compound I-0707], the pIC50 is 7.68.

`Cc1ccc(Cn2c(=O)n(C[C@H](C)C(=O)O)c(=O)[nH]/c2=N\c2ccc(OC3CCCC3)cc2)cc1` [Compound I-1189]: the pIC50 is 7.48.

`CCn1c(=O)[nH]/c(=N\c2ccc(Oc3ccc(C(=O)OC)c(F)c3)cc2)n(Cc2ccc(Cl)cc2)c1=O` [Compound I-2218]: the pIC50 is 8.52.

Take `COC(=O)[C@H](C)[C@H](C)n1c(=O)[nH]/c(=N\c2ccc(N3CCCCC3)cc2)n(Cc2ccc(C)cc2)c1=O` [Compound I-1381]: the pIC50 is 7.70.

In the case of `COC(=O)[C@@H](C)[C@@H](C)n1c(=O)[nH]/c(=N\c2ccc(Oc3ccc(C)nc3)cc2)n(Cc2ccc(Cl)cc2)c1=O` [Compound I-1376], the pIC50 was 7.82.

As to `Cc1ccc(Cn2c(=O)n([C@@H](C)[C@@H](C)C(=O)O)c(=O)[nH]/c2=N\c2ccc3nc(C)sc3c2)cc1` [Compound I-1470], the pIC50 was 8.00.

On to `C[C@@H](Cn1c(=O)[nH]/c(=N\c2ccc(OC(F)F)c(F)c2)n(Cc2ccc(Cl)cc2)c1=O)C(=O)O` [Compound I-0658], for which the pIC50 is 6.96.

Turning to `CC(C)Oc1ccc(/N=c2\[nH]c(=O)n(CC(=O)NO)c(=O)n2Cc2ccc(Cl)cc2)cc1F` [Compound I-0636], the pIC50 is 8.00.

In the case of `COC(=O)[C@H](Cn1c(=O)[nH]/c(=N\c2ccc(OC(C)C)c(C)c2)n(Cc2ccc(Cl)cc2)c1=O)OC` [Compound I-0806, (S)-1-(4-chlorobenzyl)-6-(3-mehyl-4-isopropoxyphenylimino)-3-(2-methoxycarbonyl-2-methoxy-ethyl)-1,3,5-triazinane-2,4-dion], the pIC50 was 7.92.

The same experiment, now with this note: C6BU-1 cells stably expressing human P2X3 receptor, Fluo-3 fluorescence, FDSS 3000.
As for `Cc1ccc(Cn2c(=O)n(C[C@H](C)C(=O)O)c(=O)[nH]/c2=N\c2cccc(CC(C)C)c2)cc1` [Compound I-1137], the pIC50 is 6.17.

Regarding `COc1ccc(Oc2ccc(/N=c3\[nH]c(=O)n(C[C@H](O)CO)c(=O)n3Cc3ccc(Cl)cc3)cc2)cn1` [Compound I-1734], the pIC50 is 8.30.

As to `C[C@@H](C(=O)O)[C@H](C)n1c(=O)[nH]/c(=N\c2ccc3c(c2)CCO3)n(Cc2ccc(Cl)cc2)c1=O` [Compound I-1833], the pIC50 was 6.24.

With `Cc1ccc(Cn2c(=O)n(CC3(CC(=O)O)CC3)c(=O)[nH]/c2=N\c2ccc(OC(C)C)c(C)c2)cc1` [Compound I-0984], the pIC50 is 7.68.

For `Cc1ccc(Oc2ccc(/N=c3\[nH]c(=O)n(CCCO)c(=O)n3Cc3ccc(Cl)cc3)cc2)cn1` [Compound I-1597], the pIC50 is 8.40.

`C[C@@H](Cn1c(=O)[nH]/c(=N\c2ccc(OC(F)F)cc2)n(Cc2ccc(Cl)cc2)c1=O)C(=O)O` [Compound I-1162]: the pIC50 is 6.75.

For `Cc1ccc(Cn2c(=O)n(C[C@H](C)C(N)=O)c(=O)[nH]/c2=N\c2ccc(CC(C)C)c(Cl)c2)cc1` [Compound I-1616], the pIC50 was 8.15.

Consider `CCCCCOc1ccc(/N=c2\[nH]c(=O)n(CCC(=O)O)c(=O)n2Cc2ccc(C)cc2)cc1` [Compound I-1072], for which the pIC50 was 6.60.

As for `Cc1ccc(Cn2c(=O)n(CCC(=O)O)c(=O)[nH]/c2=N\c2ccc3nc(C4CC4)sc3c2)cc1` [Compound I-1561], the pIC50 is 7.49.

Take `CCn1c(C)nc2cc(/N=c3\[nH]c(=O)n([C@@H](C)[C@@H](C)C(=O)O)c(=O)n3Cc3ccc(Cl)cc3)ccc21` [Compound I-1583]: the pIC50 is 6.48.

Regarding `C=C(C)c1ccc(Cn2c(=O)n(C[C@H](C)C(=O)O)c(=O)[nH]/c2=N\c2ccc(OC(C)C)c(C)c2)cc1` [Compound I-1001], the negative-log IC50 (pIC50) was 6.53.

Take `Cc1cc(Oc2ccc(/N=c3\[nH]c(=O)n(CCCO)c(=O)n3Cc3ccc(Cl)cc3)cc2)no1` [Compound I-1835]: the pIC50 is 8.10.

In the case of `CCc1nc2ccc(/N=c3\[nH]c(=O)n(CC)c(=O)n3Cc3ccc(Cl)cc3)cc2s1` [Compound I-1703], the pIC50 is 8.40.

Turning to `COC(=O)CCn1c(=O)[nH]/c(=N\Nc2ccc(OC)cc2)n(Cc2ccc(C)cc2)c1=O` [Compound I-1801], the negative logarithm of the IC50 (pIC50) is 6.16.

With `Cc1cc(Oc2ccc(/N=c3\[nH]c(=O)n(CCCO)c(=O)n3Cc3ccc(Cl)cc3)cc2)ccn1` [Compound I-1599], the pIC50 is 8.30.

The same experiment, now with this note: human P2X3 receptor, Test Example 1.
`CCn1c(=O)[nH]/c(=N\c2ccc(Oc3ccnc(C(=O)OC)c3)cc2)n(Cc2ccc(F)cc2)c1=O` [Compound I-2359]: the negative-log IC50 (pIC50) is 7.59.

With `O=C(O)CCn1c(=O)[nH]/c(=N\c2ccc(Oc3ncccn3)cc2)n(Cc2ccc(Cl)cc2)c1=O` [Compound I-2557], the negative-log IC50 (pIC50) was 7.72.

Take `CCOC(=O)Cn1c(=O)[nH]/c(=N\c2ccc(Oc3cccnn3)cc2)n(Cc2ccc(Cl)cc2)c1=O` [Compound I-2658]: the pIC50 was 8.30.

Turning to `O=c1[nH]/c(=N\c2ccc(Oc3ccnc(Cl)c3)cc2)n(Cc2ccc(Cl)cc2)c(=O)n1CC(CO)CO` [Compound I-2704], the pIC50 was 8.40.

For `CCn1c(=O)[nH]/c(=N\c2ccc(Oc3ccnc(NC(=O)OC(C)(C)C)c3)cc2)n(Cc2ccc(Cl)cc2)c1=O` [Compound I-2304], the pIC50 is 7.54.

For the compound `CCn1c(=O)[nH]/c(=N\c2ccc(Oc3ccc(C(=O)O)c(F)c3)cc2)n(Cc2ccc(Cl)cc2)c1=O` [Compound I-2226], the pIC50 is 7.92.

As to `CCOc1ccc(/N=c2\[nH]c(=O)n([C@H](C)CC(=O)OC)c(=O)n2Cc2ccc(C)cc2)cc1Cl` [Compound I-0876], the pIC50 is 7.64.

On to `COC(=O)/C=C/c1cccc(Oc2ccc(/N=c3\[nH]c(=O)n(C)c(=O)n3Cc3ccc(Cl)cc3)cc2)c1` [Compound I-2329], for which the pIC50 was 7.15.

Take `CCCOc1ccc(/N=c2\[nH]c(=O)n(C[C@H](C)C(=O)O)c(=O)n2Cc2ccc(C)cc2)cc1Cl` [Compound I-0840]: the pIC50 was 7.77.

As for `O=C(O)c1cncc(Oc2ccc(/N=c3\[nH]c(=O)n(C4CCC4)c(=O)n3Cc3ccc(Cl)cc3)cc2)c1` [Compound I-2485], the pIC50 is 8.10.

As for `CC(C)Oc1ccc(/N=c2\ncn(C(C)C)c(=O)n2Cc2ccc(Cl)cc2)cc1` [Compound I-2276, (E)-3-(4-chlorobenzyl)-4-(4-isopropoxyphenylimino)-1-isopropyl-3,4-dihydro-1,3,5-triazine-2(1H)-one], the pIC50 is 6.11.

For the compound `O=c1[nH]/c(=N\c2ccc(Oc3cnsn3)cc2)n(Cc2ccc(Cl)cc2)c(=O)n1C[C@H](O)CO` [Compound I-2479], the negative-log IC50 (pIC50) is 8.10.

Take `O=c1[nH]/c(=N\c2ccc(Oc3cccc(F)n3)cc2)n(Cc2ccc(Cl)cc2)c(=O)n1CCO` [Compound I-2516]: the pIC50 is 8.05.

Consider `CCOC(=O)Cn1c(=O)[nH]/c(=N\c2ccc(Oc3ncns3)cc2)n(Cc2ccc(Cl)cc2)c1=O` [Compound I-2628], for which the pIC50 was 8.40.

`Cc1ccc(Cn2c(=O)n(CCCO)c(=O)[nH]/c2=N\c2ccc(Oc3cccc(C#N)n3)cc2)cc1` [Compound I-2640]: the negative logarithm of the IC50 (pIC50) is 8.70.

In the case of `C[C@H](C(N)=O)n1c(=O)[nH]/c(=N\c2ccc(Oc3ccon3)cc2)n(Cc2ccc(Cl)cc2)c1=O` [Compound I-2500], the pIC50 is 7.17.

With `Cn1ccc(Oc2ccc(/N=c3\[nH]c(=O)n(CCCO)c(=O)n3Cc3ccc(Cl)cc3)cc2)n1` [Compound I-2413], the pIC50 is 7.44.

As to `CO/N=C/c1ccc(/N=c2\[nH]c(=O)n(C[C@H](C)C(=O)O)c(=O)n2Cc2ccc(Cl)cc2)cc1F` [Compound I-0893, (S)-1-(4-chlorobenzyl)-6-(3-fluoro-4-methoxyiminomethylphenylimino)-3-(2-hydroxycarbonylpropyl)methyl-1,3,5-triazinane-2,4-dion], the pIC50 was 6.69.
